Assay results from patent US20230382949A1 (HEPTARES THERAPEUTICS LIMITED, priority 2020, published 2023).
Like-named read-outs stand apart in the source and are kept apart here. Starred links: 1 amine or outer side, 2 acyl side, 3 side chain; linkers in the order of their positions; H or OH if unused. Non-standard residues stand in square brackets, D forms with d. Residues, ends and D or L forms follow the SMILES beside them. *: point of attachment. Ala(piperidin-4-yl) = O=C([C@H](CC1CCN([*:3])CC1)N[*:1])[*:2]; Malonyl(2,2-Me2,histaminyl) = CC(C)(C(=O)NCCc1cnc[nH]1)C(=O)*; dBip = N[C@H](Cc1ccc(-c2ccccc2)cc1)C(=O)O; Oic = O=C(O)[C@@H]1C[C@@H]2CCCC[C@@H]2N1; Phe(4-Br) = N[C@@H](Cc1ccc(Br)cc1)C(=O)O; X2 = COCCOCCOCCOCCOCCNC(=O)C(C)(C)C(=O)*; X1 = CC(C)(C(=O)NCCc1ccccc1)C(=O)*; X3 = CC(C)(C(=O)NCCc1ccccn1)C(=O)*; hArg = N=C(N)NCCCC[C@H](N)C(=O)O; hPhe = N[C@@H](CCc1ccccc1)C(=O)O; Aib = CC(C)(N)C(=O)O

Legend:
[1] = molecular target: T1, human Apelin receptor (Homo sapiens, UniProt P35414); assay: β-arrestin accumulation assay, functional agonism of human Apelin receptors; type: cell-based
T1 construct: host or cells: CHO-K1 cells
Experimental: β-arrestin assay. […] After 16 h incubation at 37° C. media was removed and cells were incubated at 37° C. for 90 min in serum free media containing increasing concentrations of test agonist. The assay reaction was stopped by adding detection reagent (DiscoveRx) and incubation for 60 min in the dark. Levels of receptor activation were then measured on a PheraStar fluorescence plate reader (BMG LabTech) and EC50 values were determined using Graphpad Prism.
T1 sequence (P32121 whole entry partner, one chain of several): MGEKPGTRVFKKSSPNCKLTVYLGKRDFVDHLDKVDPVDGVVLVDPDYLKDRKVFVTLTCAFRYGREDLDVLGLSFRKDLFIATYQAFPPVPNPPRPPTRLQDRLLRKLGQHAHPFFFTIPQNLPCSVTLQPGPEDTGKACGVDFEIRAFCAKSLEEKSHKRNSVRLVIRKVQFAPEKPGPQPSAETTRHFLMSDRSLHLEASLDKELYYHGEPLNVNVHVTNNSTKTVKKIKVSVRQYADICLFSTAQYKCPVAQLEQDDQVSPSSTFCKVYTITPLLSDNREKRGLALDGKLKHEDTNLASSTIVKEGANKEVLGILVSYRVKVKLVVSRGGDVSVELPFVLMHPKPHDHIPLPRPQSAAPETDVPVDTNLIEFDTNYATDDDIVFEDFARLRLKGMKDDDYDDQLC

[2] = molecular target: T2, human Apelin receptor (Homo sapiens, UniProt P35414); assay: cAMP accumulation assay (HTRF), functional agonism of human Apelin receptors; type: cell-based
T2 sequence (P35414 1-380): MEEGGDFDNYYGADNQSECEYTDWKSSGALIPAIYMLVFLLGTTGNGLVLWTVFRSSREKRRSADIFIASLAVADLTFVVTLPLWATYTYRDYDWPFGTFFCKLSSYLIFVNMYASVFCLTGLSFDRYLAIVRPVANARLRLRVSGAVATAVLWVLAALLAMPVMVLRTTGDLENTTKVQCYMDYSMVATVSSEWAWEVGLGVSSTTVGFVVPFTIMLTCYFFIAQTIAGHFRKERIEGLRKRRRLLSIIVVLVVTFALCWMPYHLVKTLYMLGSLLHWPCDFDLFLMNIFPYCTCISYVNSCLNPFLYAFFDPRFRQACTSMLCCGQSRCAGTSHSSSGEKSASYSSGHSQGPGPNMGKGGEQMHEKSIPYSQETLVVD
Source text: cAMP functional assay. cAMP production was quantified using the Homogeneous Time-Resolved Fluorescence (HTRF) cAMP dynamic-2 assay (Cisbio, France).

[3] = CHO, Human Apelin agonist cAMP assay, CHO cells stably expressing the human Apelin receptor, 3 uM forskolin
[4] = pEC50, Human Apelin agonist cAMP assay, CHO cells stably expressing the human Apelin receptor, 3 uM forskolin

Row | Compound | EC50 [1] [µM] | Emax [2, 3] [%] | EC50 [2, 4] [nM] | Human Apelin agonist β-arrestin assay pEC50 ([1]; CHO-K1 cells overexpressing human Apelin receptor and β-arrestin, 90 min) | Emax ([2]; Human Apelin agonist cAMP assay, CHO cells stably expressing the human Apelin receptor, 3 uM forskolin) | Emax ([2]; CHO, read-out: Emax) [%] | EC50 ([2]; read-out: pEC50 (converted)) [nM] | Human Apelin agonist β-arrestin assay Emax ([1]; CHO-K1 cells overexpressing human Apelin receptor and β-arrestin, Emax only reported for active compounds)
1 | CC(C)C[C@H](NC(=O)[C@@H](CCCNC(=N)N)NC(=O)C1C2CC2CN1C(=O)[C@H](CCCCNC(=N)N)NC(=O)[C@H](CCC(N)=O)NC(=O)[C@@H](CCCNC(=N)N)NC(=O)C(C)(C)C(=O)NCCc1c[nH]cn1)C(=O)NC(C)(C)C(=O)N[C@@H](Cc1c[nH]cn1)C(=O)N[C@@H](CC1CCNCC1)C(=O)NCC(=O)N1[C@H](C(=O)N[C@@H](Cc2ccc(Br)cc2)C(=O)N2CCC[C@H]2C(=O)N[C@H](Cc2ccc(-c3ccccc3)cc2)C(=O)O)C[C@@H]2CCCC[C@@H]21 (single isomer, unassigned) [37 Isomer 1] | > 100 | 68.6 | 10 |  |  |  |  | 
2 | CC(C)C[C@H](NC(=O)[C@@H](CCCNC(=N)N)NC(=O)C1C2CC2CN1C(=O)[C@H](CCCCNC(=N)N)NC(=O)[C@H](CCC(N)=O)NC(=O)[C@@H](CCCNC(=N)N)NC(=O)C(C)(C)C(=O)NCCc1c[nH]cn1)C(=O)NC(C)(C)C(=O)N[C@@H](Cc1c[nH]cn1)C(=O)N[C@@H](CC1CCNCC1)C(=O)NCC(=O)N1[C@H](C(=O)N[C@@H](Cc2ccc(Br)cc2)C(=O)N2CCC[C@H]2C(=O)N[C@H](Cc2ccc(-c3ccccc3)cc2)C(=O)O)C[C@@H]2CCCC[C@@H]21 (single isomer, unassigned) [37 Isomer 2] |  |  | 5.01 | <4 | 68.9 |  |  | 
3 | CC(C)C[C@H](NC(=O)[C@@H](CCCNC(=N)N)NC(=O)[C@@H]1CCCN1C(=O)[C@H](CCCCNC(=N)N)NC(=O)[C@H](CCC(N)=O)NC(=O)[C@@H](CCCNC(=N)N)NC(=O)C(C)(C)C(=O)NCCc1cnc[nH]1)C(=O)N[C@H](C)C(=O)N[C@@H](Cc1c[nH]cn1)C(=O)N[C@@H](CC1CCNCC1)C(=O)NCC(=O)N1[C@H](C(=O)N[C@@H](Cc2ccc(Br)cc2)C(=O)N2CCC[C@H]2C(=O)N[C@H](Cc2ccc(-c3ccccc3)cc2)C(=O)O)C[C@@H]2CCCC[C@@H]21 [Example 1] ({Malonyl(2,2-Me2,histaminyl)}-[dR]Q[hArg]P[dR]L[dA]H[Ala(piperidin-4-yl)]G[Oic][Phe(4-Br)]P[dBip]-OH) | > 10 | 27.2 | 15.8 |  |  |  |  | 
4 | CC(C)C[C@H](NC(=O)[C@@H](CCCNC(=N)N)NC(=O)[C@@H]1CCCN1C(=O)[C@H](CCCCNC(=N)N)NC(=O)[C@H](CCC(N)=O)NC(=O)[C@@H](CCCNC(=N)N)NC(=O)C(C)(C)C(=O)NCCc1cnc[nH]1)C(=O)NC(C)(C)C(=O)N[C@@H](Cc1c[nH]cn1)C(=O)N[C@@H](CC1CCNCC1)C(=O)NCC(=O)N1[C@H](C(=O)N[C@@H](Cc2ccc(Br)cc2)C(=O)N2CCC[C@H]2C(=O)N[C@H](Cc2ccc(-c3ccccc3)cc2)C(=O)O)C[C@@H]2CCCC[C@@H]21 [Example 2] ({Malonyl(2,2-Me2,histaminyl)}-[dR]Q[hArg]P[dR]L[Aib]H[Ala(piperidin-4-yl)]G[Oic][Phe(4-Br)]P[dBip]-OH) | > 10 | 50.8 | 20 |  |  |  |  | 
5 | CC(C)C[C@H](NC(=O)[C@@H](CCCNC(=N)N)NC(=O)[C@@H]1CCCN1C(=O)[C@H](CCCCNC(=N)N)NC(=O)[C@H](CCC(N)=O)NC(=O)[C@@H](CCCNC(=N)N)NC(=O)C(C)(C)C(=O)NCCc1ccccc1)C(=O)NC(C)(C)C(=O)N[C@@H](Cc1c[nH]cn1)C(=O)N[C@@H](CC1CCNCC1)C(=O)NCC(=O)N1[C@H](C(=O)N[C@@H](Cc2ccc(Br)cc2)C(=O)N2CCC[C@H]2C(=O)N[C@H](Cc2ccc(-c3ccccc3)cc2)C(=O)O)C[C@@H]2CCCC[C@@H]21 [Example 5] (X1-[dR]Q[hArg]P[dR]L[Aib]H[Ala(piperidin-4-yl)]G[Oic][Phe(4-Br)]P[dBip]-OH) | > 10 | 47.2 | 15.8 |  |  |  |  | 
6 | CC(C)C[C@H](NC(=O)[C@@H](CCCNC(=N)N)NC(=O)[C@@H]1CCCN1C(=O)[C@H](CCCCNC(=N)N)NC(=O)[C@H](CCC(N)=O)NC(=O)[C@@H](CCCNC(=N)N)NC(=O)C(C)(C)C(=O)NCCc1ccccn1)C(=O)NC(C)(C)C(=O)N[C@@H](Cc1c[nH]cn1)C(=O)N[C@@H](CC1CCNCC1)C(=O)NCC(=O)N1[C@H](C(=O)N[C@@H](Cc2ccc(Br)cc2)C(=O)N2CCC[C@H]2C(=O)N[C@H](Cc2ccc(-c3ccccc3)cc2)C(=O)O)C[C@@H]2CCCC[C@@H]21 [Example 6] (X3-[dR]Q[hArg]P[dR]L[Aib]H[Ala(piperidin-4-yl)]G[Oic][Phe(4-Br)]P[dBip]-OH) | > 10 | 53.9 | 20 |  |  |  |  | 
7 | COCCOCCOCCOCCOCCNC(=O)C(C)(C)C(=O)N[C@H](CCCNC(=N)N)C(=O)N[C@@H](CCC(N)=O)C(=O)N[C@@H](CCCCNC(=N)N)C(=O)N1CCC[C@H]1C(=O)N[C@H](CCCNC(=N)N)C(=O)N[C@@H](CC(C)C)C(=O)NC(C)(C)C(=O)N[C@@H](Cc1c[nH]cn1)C(=O)N[C@@H](CC1CCNCC1)C(=O)NCC(=O)N1[C@H](C(=O)N[C@@H](Cc2ccc(Br)cc2)C(=O)N2CCC[C@H]2C(=O)N[C@H](Cc2ccc(-c3ccccc3)cc2)C(=O)O)C[C@@H]2CCCC[C@@H]21 [Example 7] (X2-[dR]Q[hArg]P[dR]L[Aib]H[Ala(piperidin-4-yl)]G[Oic][Phe(4-Br)]P[dBip]-OH) | > 10 |  |  |  |  | 59.2 | 20 | 
8 | CC(C)C[C@H](NC(=O)[C@@H](CCCNC(=N)N)NC(=O)[C@@H]1CCCN1C(=O)[C@H](CCCCNC(=N)N)NC(=O)[C@H](CCc1ccccc1)NC(=O)[C@@H](CCCNC(=N)N)NC(=O)C(C)(C)C(=O)NCCc1c[nH]cn1)C(=O)NC(C)(C)C(=O)N[C@@H](Cc1c[nH]cn1)C(=O)N[C@@H](CC1CCNCC1)C(=O)NCC(=O)N1[C@H](C(=O)N[C@@H](Cc2ccc(Br)cc2)C(=O)N2CCC[C@H]2C(=O)N[C@H](Cc2ccc(-c3ccccc3)cc2)C(=O)O)C[C@@H]2CCCC[C@@H]21 [Example 8] ({Malonyl(2,2-Me2,histaminyl)}-[dR][hPhe][hArg]P[dR]L[Aib]H[Ala(piperidin-4-yl)]G[Oic][Phe(4-Br)]P[dBip]-OH) | > 10 | 56.1 | 15.8 |  |  |  |  | 
9 | CC(C)C[C@H](NC(=O)[C@@H](CCCNC(=N)N)NC(=O)[C@@H]1CCCN1C(=O)[C@H](CCCNC(=N)N)NC(=O)[C@H](CCC(N)=O)NC(=O)[C@@H](CCCNC(=N)N)NC(=O)C(C)(C)C(=O)NCCc1c[nH]cn1)C(=O)NC(C)(C)C(=O)N[C@@H](Cc1c[nH]cn1)C(=O)N[C@@H](CC1CCNCC1)C(=O)NCC(=O)N1[C@H](C(=O)N[C@@H](Cc2ccc(Br)cc2)C(=O)N2CCC[C@H]2C(=O)N[C@H](Cc2ccc(-c3ccccc3)cc2)C(=O)O)C[C@@H]2CCCC[C@@H]21 [Example 9] ({Malonyl(2,2-Me2,histaminyl)}-[dR]QRP[dR]L[Aib]H[Ala(piperidin-4-yl)]G[Oic][Phe(4-Br)]P[dBip]-OH) | > 10 | 86.9 | 6.31 |  |  |  |  | 
10 | CC(C)C[C@H](NC(=O)[C@@H](CCCNC(=N)N)NC(=O)[C@@H]1C[C@@H]2CCCC[C@@H]2N1C(=O)[C@H](CCCCNC(=N)N)NC(=O)[C@H](CCC(N)=O)NC(=O)[C@@H](CCCNC(=N)N)NC(=O)C(C)(C)C(=O)NCCc1c[nH]cn1)C(=O)NC(C)(C)C(=O)N[C@@H](Cc1c[nH]cn1)C(=O)N[C@@H](CC1CCNCC1)C(=O)NCC(=O)N1[C@H](C(=O)N[C@@H](Cc2ccc(Br)cc2)C(=O)N2CCC[C@H]2C(=O)N[C@H](Cc2ccc(-c3ccccc3)cc2)C(=O)O)C[C@@H]2CCCC[C@@H]21 [Example 10] ({Malonyl(2,2-Me2,histaminyl)}-[dR]Q[hArg][Oic][dR]L[Aib]H[Ala(piperidin-4-yl)]G[Oic][Phe(4-Br)]P[dBip]-OH) | > 10 | 52.5 | 20 |  |  |  |  | 
11 | Apelin [reference compound] |  |  |  |  |  |  |  | 165.8
